# Experimental data: ChEMBL document CHEMBL1201862, “PubChem BioAssay data set” (2004)
#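 Interpolation was linear, between the two tested concentrations surrounding the appropriate level; five concentrations were tested over 48 hours in 96-well plates. GI50 marks 50% less growth.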 Calls of active or inactive are those of the source. No stated cut-off is given here; in the data, active = GI50 up to about 1.1 µM and inactive = higher.
# Assays:
# Assay in all cases: DTP human tumour cell line panel, 48 h
# 786-0 = system: 786-0
# A498 = system: A498
# A549 = system: A549
# ACHN = system: ACHN
# CAKI-1 = system: CAKI-1
# CCRF-CEM = system: CCRF-CEM
# COLO 205 = system: COLO 205
# DLD-1 = system: DLD-1
# DMS-114 = system: DMS-114
# DMS-273 = system: DMS-273
# EKVX = system: EKVX
# HCC 2998 = system: HCC 2998
# HCT-116 = system: HCT-116
# HCT-15 = system: HCT-15
# HL-60 = system: HL-60
# HOP-18 = system: HOP-18
# HOP-62 = system: HOP-62
# HOP-92 = system: HOP-92
# HT-29 = system: HT-29
# IGROV-1 = system: IGROV-1
# K562 = system: K562
# KM-20L2 = system: KM-20L2
# KM12 = system: KM12
# LOX IMVI = system: LOX IMVI
# LXFL 529 = system: LXFL 529
# M14 = system: M14
# M19-MEL = system: M19-MEL
# MOLT-4 = system: MOLT-4
# Malme-3M = system: Malme-3M
# NCI-H226 = system: NCI-H226
# NCI-H23 = system: NCI-H23
# NCI-H460 = system: NCI-H460
# NCI-H522 = system: NCI-H522
# OVCAR-3 = system: OVCAR-3
# OVCAR-4 = system: OVCAR-4
# OVCAR-5 = system: OVCAR-5
# OVCAR-8 = system: OVCAR-8
# RPMI-8226 = system: RPMI-8226
# SF-268 = system: SF-268
# SF-295 = system: SF-295
# SF-539 = system: SF-539
# SK-MEL-28 = system: SK-MEL-28
# SK-MEL-2 = system: SK-MEL-2
# SK-OV-3 = system: SK-OV-3
# SN12C = system: SN12C
# SNB-19 = system: SNB-19
# SNB-75 = system: SNB-75
# SNB-78 = system: SNB-78
# SW-620 = system: SW-620
# TK-10 = system: TK-10
# U-251 = system: U-251
# UACC-257 = system: UACC-257
# UACC-62 = system: UACC-62
# UO-31 = system: UO-31
# SK-MEL-5 = system: SK-MEL-5
# SR = system: SR
# XF498 = system: XF498
structure (smiles),measurement,setting,value
CC(C)(C)C1C=C(Sc2ccccc2)C(=O)O1 (configuration not stated),GI50,786-0,68.9 µM (inactive)
same,GI50,A498,41.9 µM (inactive)
same,GI50,A549,33.3 µM (inactive)
same,GI50,ACHN,32.1 µM (inactive)
same,GI50,CAKI-1,45.6 µM (inactive)
same,GI50,CCRF-CEM,37.4 µM (inactive)
same,GI50,COLO 205,26.9 µM (inactive)
same,GI50,DLD-1,42.5 µM (inactive)
same,GI50,DMS-114,32.8 µM (inactive)
same,GI50,DMS-273,40.7 µM (inactive)
same,GI50,EKVX,47 µM (inactive)
same,GI50,HCC 2998,58.9 µM (inactive)
same,GI50,HCT-116,40.1 µM (inactive)
same,GI50,HCT-15,43.3 µM
same,GI50,HL-60,24.9 µM (inactive)
same,GI50,HOP-18,75.9 µM (inactive)
same,GI50,HOP-62,45.4 µM (inactive)
same,GI50,HOP-92,29.2 µM (inactive)
same,GI50,HT-29,49.8 µM (inactive)
same,GI50,IGROV-1,48.9 µM (inactive)
same,GI50,K562,49.3 µM (inactive)
same,GI50,KM-20L2,39.1 µM (inactive)
same,GI50,KM12,40.6 µM (inactive)
same,GI50,LOX IMVI,37.6 µM (inactive)
same,GI50,LXFL 529,34.8 µM (inactive)
same,GI50,M14,62.1 µM (inactive)
same,GI50,M19-MEL,48.9 µM (inactive)
same,GI50,MOLT-4,30.3 µM (inactive)
same,GI50,Malme-3M,97.5 µM (inactive)
same,GI50,NCI-H226,54.7 µM (inactive)
same,GI50,NCI-H23,33.5 µM (inactive)
same,GI50,NCI-H460,40.4 µM (inactive)
same,GI50,NCI-H522,32.7 µM (inactive)
same,GI50,OVCAR-3,42.8 µM (inactive)
same,GI50,OVCAR-4,63.8 µM (inactive)
same,GI50,OVCAR-5,34.2 µM (inactive)
same,GI50,OVCAR-8,37.3 µM (inactive)
same,GI50,RPMI-8226,36 µM (inactive)
same,GI50,SF-268,37.2 µM (inactive)
same,GI50,SF-295,35.2 µM (inactive)
same,GI50,SF-539,44.1 µM (inactive)
same,GI50,SK-MEL-28,83.6 µM (inactive)
same,GI50,SK-MEL-2,> 100 µM (inactive)
same,GI50,SK-OV-3,58.9 µM (inactive)
same,GI50,SN12C,36.2 µM (inactive)
same,GI50,SNB-19,57.9 µM (inactive)
same,GI50,SNB-75,22.8 µM (inactive)
same,GI50,SNB-78,63 µM (inactive)
same,GI50,SW-620,80.5 µM (inactive)
same,GI50,TK-10,60.5 µM (inactive)
same,GI50,U-251,54 µM (inactive)
same,GI50,UACC-257,31.8 µM (inactive)
same,GI50,UACC-62,36.7 µM (inactive)
same,GI50,UO-31,33.7 µM (inactive)
COC(=O)/C(=N/O)C(C(=O)C=C(C)C)C(=O)C(=O)Nc1nc2ccc([N+](=O)[O-])cc2s1 (configuration not stated),GI50,786-0,37.3 µM (inactive)
same,GI50,A498,10.5 µM (inactive)
same,GI50,A549,30.8 µM (inactive)
same,GI50,ACHN,24.4 µM (inactive)
same,GI50,CAKI-1,24.2 µM (inactive)
same,GI50,CCRF-CEM,24.7 µM (inactive)
same,GI50,COLO 205,41.6 µM (inactive)
same,GI50,DMS-273,45.4 µM (inactive)
same,GI50,EKVX,16.7 µM (inactive)
same,GI50,HCC 2998,35.6 µM (inactive)
same,GI50,HCT-116,41.7 µM (inactive)
same,GI50,HCT-15,30.7 µM
same,GI50,HL-60,38.2 µM (inactive)
same,GI50,HOP-62,32.9 µM (inactive)
same,GI50,HOP-92,13.1 µM (inactive)
same,GI50,HT-29,59.7 µM (inactive)
same,GI50,IGROV-1,36.9 µM (inactive)
same,GI50,K562,28.9 µM (inactive)
same,GI50,KM-20L2,80.2 µM (inactive)
same,GI50,KM12,47.2 µM (inactive)
same,GI50,LOX IMVI,22.9 µM (inactive)
same,GI50,LXFL 529,25.6 µM (inactive)
same,GI50,M14,54.7 µM (inactive)
same,GI50,M19-MEL,> 100 µM (inactive)
same,GI50,MOLT-4,23.9 µM (inactive)
same,GI50,Malme-3M,27.5 µM (inactive)
same,GI50,NCI-H226,23.6 µM (inactive)
same,GI50,NCI-H23,25.2 µM (inactive)
same,GI50,NCI-H460,37.9 µM (inactive)
same,GI50,NCI-H522,32.1 µM (inactive)
same,GI50,OVCAR-3,21.5 µM (inactive)
same,GI50,OVCAR-4,31.8 µM (inactive)
same,GI50,OVCAR-5,37.7 µM (inactive)
same,GI50,OVCAR-8,39.5 µM (inactive)
same,GI50,RPMI-8226,27.9 µM (inactive)
same,GI50,SF-268,28.3 µM (inactive)
same,GI50,SF-295,36.8 µM (inactive)
same,GI50,SF-539,23.2 µM (inactive)
same,GI50,SK-MEL-28,58.7 µM (inactive)
same,GI50,SK-MEL-2,25.8 µM (inactive)
same,GI50,SK-MEL-5,43.8 µM (inactive)
same,GI50,SK-OV-3,24.8 µM (inactive)
same,GI50,SN12C,32.2 µM (inactive)
same,GI50,SNB-19,67.9 µM (inactive)
same,GI50,SNB-78,27.7 µM (inactive)
same,GI50,SR,38.1 µM (inactive)
same,GI50,SW-620,33.8 µM (inactive)
same,GI50,TK-10,27.3 µM (inactive)
same,GI50,U-251,49.5 µM (inactive)
same,GI50,UACC-257,44.6 µM (inactive)
same,GI50,UACC-62,32.6 µM (inactive)
same,GI50,UO-31,26.8 µM (inactive)
same,GI50,XF498,58.7 µM (inactive)
